Experimental data taken from US9663561B2, “Methods of treatment of cancer using SRC-modulating peptides” (The University of Toledo, priority 2006, dated 2017).
Each block holds one compound with its values, some of them ahead of it.

What was measured:
[1] = tested on: Src; test: In vitro binding assay of GST-Na+/K+-ATPase constructs with purified or His-tagged Src; design: species or system chicken
Experimental: (§1) The preparation of chicken c-Src lacking the SH4 domain and GST-Src mutants were done (Ma et al., 2000). GST-NT (amino acid residue 6-90) [SEQ ID NO: 51], GST-CD2 (amino acid residue 152-288) [SEQ ID NO 52], and GST-CD3 (amino acid residue 350-785) [SEQ ID NO: 53] expression vectors were constructed based on the sequence of pig kidney Na+/K+-ATPase α1 subunit (see FIG. 3A).
(§2) The purified Na+/K+-ATPase was solubilized in 1% Triton X-100 PBS and centrifuged at 100,000×g for 30 min. The supernatant was collected for the binding assay. GST-fusion proteins (5 μg) were conjugated on glutathione beads and incubated with the solubilized Na+/K+-ATPase in 500 μl PBS in the presence of 0.5% Triton X-100 at room temperature for 30 min. The beads were washed with the same buffer for four times. The bound Na+/K+ATPase was resolved on 10% SDS-PAGE and detected by Western blot. Reciprocal binding assay using GST-Na+/K+-ATPase constructs (5 μg) and purified Src lacking of first 85 amino acids (200 ng) or His-tagged Src constructs (100 ng) was done similarly. To test if native Na+/K+-ATPase binds Src, the above experiments were repeated in the absence of Triton X-100. To make the Na+/K+-ATPase/Src complex, 2-5 μg of the purified Na+/K+ATPase was incubated with 4.5 U of Src (˜10 ng) in PBS in the absence of Triton X-100 at room temperature for 30 min. The complex was either used for the experiments directly as indicated or collected by centrifugation at 100,000×g for 30 min.

[2] = biological target: T1, Src (Gallus gallus, UniProt P00523); test: as above; design: species or system chicken; details: purified Src lacking first 84 amino acids, 200 ng
T1 construct: His; made in house; host or cells: sf-9 cells (Src without the first 85 residues); Escherichia coli BL21 (His-tagged constructs)
Experimental: as §1, §2

[3] = tested on: LLC-PK1 cells; test: Recruitment of Src to the Na+/K+-ATPase signaling complex (co-immunoprecipitation); format: cell-based, pig; details: 1 μM pretreatment 15 min, then 1 μM ouabain 5 min
Experimental: FIG. 9C Inhibition of Src blocks ouabain-induced recruitment of Src to the Na+/K+-ATPase signaling complex. LLC-PK1 cells were pretreated with 1 μM PP2 or PP3 for 15 min and then exposed to 1 μM ouabain for 5 min. Cell lysates were immunoprecipitated and analyzed. Values are mean±SE of at least four independent experiments. * p<0.05.
(§3) Cells were lysed in RIPA buffer containing 1% Nonidet P40, 0.25% sodium deoxycholate, 150 mM NaCl, 1 mM EDTA, 1 mM phenylmethylsulfonyl fluoride, 1 mM sodium orthovanadate, 1 mM NaF, 10 μg/ml aprotinin, 10 μg/mlleupeptin, and 50 mM Tris-HCl (pH 7.4). Cell lysates were cleared by centrifugation at 16,000×g for […], and the supernatants (1 mg) were either immunoprecipitated with anti-α1 antibody or incubated with different GST-fusion proteins. The complexes were then pulled down by either protein G agarose or glutathione beads (Ma et al., 2000; Haas et al., 2002) and analyzed by Western blot.

[4] = tested on: LLC-PK1 cells; test: Sensitivity of LLC-PK1-derived cells to selection agents; format: cell-based, pig
Experimental: Another batch of cells was co-transfected with pEYFP together with the pSuppressor-A4 siRNA and pBade-puro so that the co-expressed EYFP could be used as a marker to pick clones. Empty vector (pSuppressor) or A1 siRNA-transfected cells were co-selected and used as a control. The cells were selected with puromycin (1 μg/ml) 24 h posttransfection. Puromycin-resistant colonies were cloned and expanded. To rescue the Na+/K+-ATPase knockdown cells, cells were transfected with the pRc/CMV-α1AACm1. Selection was initiated with 3 μM ouabain because untransfected cells were very sensitive to ouabain. After about 1 week, ouabain-resistant colonies were isolated and expanded into stable cell lines in the absence of ouabain. G418 was not used because these cells are resistant to it, requiring more than 3 mg/ml to kill the untransfected cells.

[5] = biological target: T2, Src (Sus scrofa, UniProt K7GM45); test: Src pY418 in LLC-PK1 cells transiently transfected with YFP-tagged constructs; format: cell-based, pig; details: transient transfection 24 h
T2 construct: endogenous in cells; host or cells: LLC-PK1 (pig kidney)
Experimental: FIG. 22A. LLC-PK1 cells were transient-transfected with YFP-tagged ND1, ND, and CD3 for 24 h.
Cells were then lysed in RIPA buffer and probed for pY418. YFP were also transient-transfected into LLC-PK1 cells as control.

[6] = biological target: T3, Na+/K+-ATPase/Src complex (Sus scrofa, UniProt P05024); test: Src pY418 phosphorylation of the Na+/K+-ATPase/Src complex (Western blot); format: biochemical
T3 construct: Na+/K+-ATPase was purified from pig kidney outer medulla using the Jorgensen method; tissue Upstate Biotechnology (Src only); host or cells: pig kidney outer medulla (Na+/K+-ATPase)
Experimental: (§4) The Src kinase activity was assayed using a commercial kit (Haas et al., 2000). To determine how Na+/K+-ATPase affects Src kinase activity, the purified Src (4.5 U) was incubated with 5 μg of the purified Na+/K+-ATPase in the Src assay buffer for 30 min at room temperature. Afterward, both control Src or the Na+/K+-ATPase-bound Src were exposed to 10 μM ouabain and Src kinase activity was determined. In other experiments, the Src pY418 was measured by anti-pY418 antibody to indicate Src activation (Ma et al., 2000). To do so, the purified Src (4.5 U) was incubated with different amounts of the purified Na+/K+-ATPase or GST-Na+/K+ATPase constructs in phosphate-buffered saline (PBS) for 30 min at 37° C. Afterward, 2 mM ATP/Mg2+ was added. The reaction continued for 5 min at 37° C. and was stopped by addition of SDS sample buffer.
as §2

[7] = biological target: T4, purified pig kidney Na+/K+-ATPase (Sus scrofa, UniProt P05024); test: ATPase activity of purified pig kidney Na+/K+-ATPase; format: biochemical
T4 construct: Na+/K+-ATPase was purified from pig kidney outer medulla using the Jorgensen method; from tissue; host or cells: pig kidney outer medulla
Description: Src, without the first 85 amino acid residues, was purified from sf-9 cells as described (Ma et al., 2000) and used in the initial binding assays to ensure that Src binds to the Na+/K+-ATPase, but not the lipid composition in the purified Na+/K+-ATPase preparation. In subsequent experiments (e.g., phosphorylation and activity assays), purified recombinant full-length Src from Upstate Biotechnology was used. Na+/K+-ATPase was purified from pig kidney outer medulla using the Jorgensen method (Xie et al., 1996) and the preparations with specific activities between 1200 and 1400 μmol Pi/mg/h were used.
GST fusion proteins or His-tagged proteins were expressed in Escherichia coli BL21 and purified on glutathione beads or nickel column.

[8] = biological target: T2, Src; test: GST-CD3 pulldown of Src from LLC-PK1 cell lysates; format: binding, pig; details: 1 mg LLC-PK1 cell lysates
Experimental: FIG. 4C. A Western blot showing that Src was pulled down by GST-CD3 of Na+/K+-ATPase (Na/K) and H+/K+-ATPase (H/K), but not SERCA from 1 mg LLC-PK1 cell lysates.
as §3

[9] = biological target: T5, Src (Homo sapiens, UniProt P12931); test: Src pY418 autophosphorylation / activity of purified recombinant Src; format: biochemical; details: recombinant Src (4.5 U) incubated 30 min, then 2 mM ATP/Mg2+ 5 min
T5 construct: purified recombinant full-length Src from Upstate Biotechnology was used; purchased Upstate Biotechnology (Lake Placid, N.Y.)
Experimental: as §4
The reaction was stopped by adding 5× loading buffer. pY418 was probed to measure Src activation.

[10] = biological target: T6, purified Na+/K+-ATPase (Sus scrofa, UniProt P05024); test: In vitro GST pulldown binding assay with purified Na+/K+-ATPase; design: species or system pig; details: GST-tagged Src truncations and purified Na+/K+-ATPase
T6 construct: Na+/K+-ATPase was purified from pig kidney outer medulla using the Jorgensen method; from tissue; host or cells: pig kidney outer medulla
Experimental: as §2

[11] = tested on: PY-17 cells; test: FAK Tyr925 phosphorylation in α1 knockdown cells; format: cell-based, pig; details: 1 μM PP2 for 0.5 and 2 h
Experimental: FIG. 17D. P-11 and PY-17 cells were treated with 1 μM PP2 for 0.5 and 2 h. FAK and Src activation was measured by using the specific antibodies. A representative Western blot is shown, and the same experiments were repeated three times.
(§5) Cells were washed with PBS, solubilized in modified ice-cold radioimmune precipitation assay buffer, and subjected to immunoprecipitation or Western blot analysis. Protein signal was detected using the enhanced chemiluminescence kit and quantified using a Bio-Rad GS-670 imaging densitometer.

[12] = tested on: SYF and SYF+Src cells; test: Protein tyrosine phosphorylation in SYF and SYF+Src cells; format: cell-based, mouse; details: SYF+Src cells
Experimental: FIG. 9B. Both SYF and SYF+Src cells were treated with 100 μM ouabain for 5 min and analyzed as in A. Representative Western blots of three experiments are shown in both A and B.
as §3

[13] = tested on: Src and ERK1/2; test: Activation of Src and ERK1/2 in P-11, A4-11, PY-17 and AAC-19 cells (Western blot); format: cell-based, pig; details: for increase in SrcTyr(P)418: n=3
Experimental: FIGS. 18A and 18B. Cells were exposed to 100 nM ouabain for either 5 or 15 min, and the cell lysates (50 μg/lane) were analyzed by Western blot for active Src or active ERK1/2. Blots were probed first with anti-Tyr(P)^418-Src or anti-pERK antibody, then stripped, and reprobed for total Src or ERK1/2 to ensure equal loading.
FIGS. 18 C and 18D. Cells were treated with indicated concentrations of ouabain for 5 min, and total cell lysates were analyzed for Tyr(P)^418-Src and total Src or pERK1/2 and total ERK1/2 as in FIGS. 18A and 18B. A representative Western blot and combined quantitative data are shown. The quantitative data (relative ratio of pSrc/Src or pERK/ERK) from three independent experiments (mean±S.E.) were calculated relative to the control condition of P-11 cells. *, p<0.05 versus the respective control condition of each cell line. con, control.
as §5

Compound: GST-CD2: GST fusion of pig kidney Na+/K+-ATPase α1 amino acid residue 152-288
interaction with His-tagged SH3SH2 domain of Src [1]: interacted with the SH3SH2 domain | interaction with His-tagged kinase domain of Src [1]: not the kinase domain | interaction with Src [2]: interacted

Compound: Nc1ncnc2c1cnn2-c1ccccc1 [PP3]
block of ouabain-induced recruitment of Src to the Na+/K+-ATPase [3]: failed to block

Compound: CN(CC[C@H](N)CC(=O)N[C@H]1C=C[C@H](n2ccc(N)nc2=O)O[C@@H]1C(=O)O)C(=N)N [blasticidin]
sensitivity of knockdown cells ([4]; 15 μg/ml): sensitive to blasticidin

Compound: CD3: YFP-tagged cytosolic domain 3 of Na+/K+-ATPase α1
Src phosphorylation (pY418) in LLC-PK1 cells [5]: decrease Src phosphorylation

Compound: [O]=[V]([O-])([O-])[O-] [vanadate]
Src pY418 of Na+/K+-ATPase/Src complex ([6]; 10-100 μM vanadate): no effect on Src pY418 | inhibition of the ATPase activity ([7]; 100 μM vanadate): complete inhibition | inhibition of the ATPase activity ([7]; 10-100 μM vanadate): completely inhibited the ATPase activity

Compound: GST-CD3: GST fusion of pig kidney Na+/K+-ATPase α1 amino acid residue 350-785
pulldown of Src from LLC-PK1 cell lysates [8]: pulled down | interaction with His-tagged SH3SH2 domain of Src [1]: not the SH3SH2 domain | interaction with His-tagged kinase domain of Src [1]: interacted with the kinase domain | interaction with Src [2]: interacted | Src pY418 (autophosphorylation at Tyr418) [9]: dose-dependent inhibition

Compound: LRLEVKLGQGCFGEVWMGTWNGTTRVAIKTLKPGTMSPEAFLQEAQVMKKLRHE [KD1]
activation of Na+/K+-ATPase-inhibited Src ([6]; competing the binding motif for Src): effective in activating the Na+/K+-ATPase-inhibited Src | binding to Na+/K+-ATPase [10]: binds Na+/K+-ATPase

Compound: CN[C@@H]1[C@@H](O)[C@@H](O[C@@H]2[C@@H](O)[C@H](O[C@H]3O[C@H]([C@@H](C)O)[C@@H](O)[C@H](O)[C@H]3N)[C@@H](N)C[C@H]2N)OC[C@]1(C)O [Peptide G418, G418]
concentration required to kill the untransfected cells ([4]; untransfected cells): more than 3 mg/ml

Compound: CC(C)(C)n1nc(-c2ccc(Cl)cc2)c2c(N)ncnc21 [PP2]
increase in FAK Tyr(P)925 in knockdown cells [11]: sensitive | block of ouabain-induced protein tyrosine phosphorylation [12]: able to block

pulldown of Src from LLC-PK1 cell lysates [8]: pulled down Src
Compound: GST-H+/K+-CD3: GST fusion of the CD3 from rat gastric H+/K+-ATPase

Compound: epidermal growth factor: epidermal growth factor
increase in SrcTyr(P)418 ([13]; P-11 cells): 2.5±0.3 fold | stimulation of ERK1/2 ([13]; PY-17 cells): able to stimulate ERK1/2 | increase in SrcTyr(P)418 ([13]; PY-17 cells): 1.7±0.2 fold
